In paper PMC5055185, “Dual pharmacological inhibition of glutathione and thioredoxin systems synergizes to kill colorectal carcinoma stem cells” (Cancer Medicine, 2016):
Where “and” joins values, the source holds several entries; their conditions need not be identical. Identical values can stand only once.

What was measured:
Format in all cases: cell-based, human
[1] = tested on: OUMS‐36 embryonic fibroblasts; assay: cell survival (live cell count by trypan blue exclusion, 5 days drug exposure), OUMS-36; details: for IC50: OUMS36, cellular survival, 5 days
Procedure: (§1) Modified procedures of CTOS culture 16 were described elsewhere 10. […] The culture medium was serum‐free advanced DMEM/F‐12 (GIBCO, Waltham, MA) supplemented with FGF‐2 (10 ng/mL, ReproCell, Yokohama, Japan), penicillin ([…], Wako, Osaka, Japan), streptomycin (0.1 mg/mL,Wako), gentamicin (50 μg/mL, Wako), and fungizone (0.25 μg/mL, GIBCO). DLD‐1 and HCT116 CRC cell lines were purchased from JCRB Cell Bank (Osaka, Japan) and RIKEN BioResource Center (Ibaraki, Japan), respectively. In order to estimate pharmacological side effects against normal tissues, human diploid fibroblasts were purchased (JCRB Cell Bank) as model cells. The origins of the fibroblasts were as follows: OUMS‐36 (embryo), TIG‐3 (fetal lung), TIG‐111 (dermal fibroblasts [DFs] from individual), TIG‐119 (DFs from individual), and TIG‐102 (DFs from individual). Adult DFs were purchased from Kurabo (Osaka, Japan). CRC cell lines and fibroblasts were maintained under supplier‐recommended culture conditions. Since the culture conditions are different between fibroblasts and CTOSs, we need to be cautious about the interpretation of data (i.e., lateral comparison between them). […] Colorectal CTOSs display augmented survival through maintaining epithelial structure with E‐cadherin 16. On the other hand, the establishment of conventional cell lines (adherent culture) are much less efficient because constant cell division and autonomous survival are required for the procedure. When we choose CTOSs instead of cancer cell lines, we lose the equivalent condition (adherent culture) as a trade‐off.
(§2) Each drug's half‐maximal inhibitory concentration (IC50) was calculated based on live cell number ratios (drug treated/untreated × 100%) obtained from serial dilution of drug concentration. The length of drug exposure was 5 days. Each number of live cells was counted automatically by trypan blue exclusion (LUNA automated cell counter, Logos Biosystems, Anyang, South Korea). Cancer spheroids were dispersed with serial treatments (20 min each) of TrypLE™ and Accumax™. Thus, IC50 was determined based on cellular survival, but not on proliferation. We chose the survival index instead of the speed of growth because CTOSs in vitro show very slow proliferation (quiescence), which is one of the hallmarks of CSCs 2. The IC50 values of fibroblasts were accordingly determined based on cellular survival index during quiescence (by contact inhibition). […] To quantify the synergism of two distinct drugs, Combination Index (CI) was calculated 21. A CI value of about 1 (0.90–1.10) was defined as nearly additive and CI values more than (>1.10) and less than (<0.90) were defined as antagonism and synergism, respectively. IC50 and CI were determined using CompuSyn software (ComboSyn, Paramus, NK).

[2] = tested on: CTOS88 colorectal cancer tissue‐originated spheroids; assay: cell survival (trypan blue exclusion, 5 days), CTOS88; details: for Ratio of survived cells (Drugs treated/Untreated), #3: passage point #3; for Ratio of survived cells (Drugs treated/Untreated), #4: passage point #4; for Ratio of survived cells (Drugs treated/Untreated), #5: passage point #5; for Ratio of survived cells (Drugs treated/Untreated), #1: passage point #1; for Ratio of survived cells (Drugs treated/Untreated), #6: passage point #6
Text: (§3) All experimental procedures were approved by the animal facility at Dokkyo Medical University (ID: 951) and were described elsewhere 10. The existence of CSCs has been experimentally proven through serial xenotransplantation and tumorigenesis 2, 14. […] These subcutaneous tumors were again subjected to enzymatic dissociation and some of the tumor cells were subcutaneously transplanted into other mice. […] Seven cases (CTOS:40, 42, 68, 71, 76, 86, 88) were used for in vitro experiments.
as §1
(§4) Each drug's half‐maximal inhibitory concentration (IC50) was calculated based on live cell number ratios (drug treated/untreated × 100%) obtained from serial dilution of drug concentration. The length of drug exposure was 5 days. Each number of live cells was counted automatically by trypan blue exclusion (LUNA automated cell counter, Logos Biosystems, Anyang, South Korea). Cancer spheroids were dispersed with serial treatments (20 min each) of TrypLE™ and Accumax™. Thus, IC50 was determined based on cellular survival, but not on proliferation.

[3] = tested on: TIG‐102 dermal fibroblasts; assay: cell survival (trypan blue exclusion, 5 days), TIG-102; details: for IC50: TIG102, cellular survival, 5 days; for Ratio of survived cells (Drugs treated/Untreated), Average / Ratio of survived cells (Drugs treated/Untreated), single passage points #: TIG-102
Procedure: as §1, §2

[4] = tested on: TIG‐119 dermal fibroblasts; assay: cell survival (trypan blue exclusion, 5 days), TIG-119; details: for IC50: TIG119, cellular survival, 5 days
Procedure: as §1, §2

[5] = tested on: CTOS76 colorectal cancer tissue‐originated spheroids; assay: cell survival (trypan blue exclusion, 5 days), CTOS76; details: for IC50: CTOS76, cellular survival, 5 days
Text: as §3, §1, §4

[6] = calculated from average % survival

SMILES: CC[PH](CC)(CC)[Au][S][C@@H]1O[C@H](COC(C)=O)[C@@H](OC(C)=O)[C@H](OC(C)=O)[C@H]1OC(C)=O [Aura, Auranofin]
- IC50 [1]: 1.79 µM
- Ratio of survived cells (Drugs treated/Untreated), Average ([1]; OUMS-36, Aura 1 microM): 87.8571%
- Ratio of survived cells (Drugs treated/Untreated), single passage points # ([1]; OUMS-36, Aura 1 microM): 123% and 124% and 66% and 91% and 65% and 77% and 69%
- Ratio of survived cells (Drugs treated/Untreated), Average ([1]; OUMS-36, Aura 2 microM): 39.8571%
- Ratio of survived cells (Drugs treated/Untreated), Average ([1]; OUMS-36, Aura 4 microM): 6%
- Ratio of survived cells (Drugs treated/Untreated), Average ([2]; Aura 1 microM): 78.3333%
- Ratio of survived cells (Drugs treated/Untreated), #3 ([2]; Aura 1 microM): 91%
- Ratio of survived cells (Drugs treated/Untreated), #4 ([2]; Aura 1 microM): 76%
- Ratio of survived cells (Drugs treated/Untreated), #5 ([2]; Aura 1 microM): 68%
- Ratio of survived cells (Drugs treated/Untreated), Average ([2]; Aura 2 microM): 67%
- Ratio of survived cells (Drugs treated/Untreated), #3 ([2]; Aura 2 microM): 72%
- Ratio of survived cells (Drugs treated/Untreated), #4 ([2]; Aura 2 microM): 61%
- Ratio of survived cells (Drugs treated/Untreated), #5 ([2]; Aura 2 microM): 68%
- Ratio of survived cells (Drugs treated/Untreated), Average ([2]; Aura 4 microM): 24.3333%
- Ratio of survived cells (Drugs treated/Untreated), #1 ([2]; Aura 4 microM): 33%
- Ratio of survived cells (Drugs treated/Untreated), #3 ([2]; Aura 4 microM): 23%
- Ratio of survived cells (Drugs treated/Untreated), #5 ([2]; Aura 4 microM): 17%
- IC50 [2, 6]: 2.34 µM
- IC50 ([2]; cellular survival, 5 days): 2.34 µM
- IC50 [3]: 1.09 µM
- Ratio of survived cells (Drugs treated/Untreated), Average ([3]; Aura 1 microM): 48.5%
- Ratio of survived cells (Drugs treated/Untreated), single passage points # ([3]; Aura 1 microM): 44% and 53%
- Ratio of survived cells (Drugs treated/Untreated), Average ([3]; Aura 2 microM): 21%
- Ratio of survived cells (Drugs treated/Untreated), Average ([3]; Aura 4 microM): 0%
- Ratio of survived cells (Drugs treated/Untreated), single passage points # ([3]; Aura 4 microM): 0%
- IC50 [4]: 1.17 µM
- Ratio of survived cells (Drugs treated/Untreated), Average ([4]; TIG-119, Aura 1 microM): 53.3333%
- Ratio of survived cells (Drugs treated/Untreated), Average ([4]; TIG-119, Aura 2 microM): 31.6667%
- Ratio of survived cells (Drugs treated/Untreated), Average ([4]; TIG-119, Aura 4 microM): 5%
- IC50 [5]: 2.83 µM
- Ratio of survived cells (Drugs treated/Untreated), Average ([5]; CTOS#76, Aura 1 microM): 68.4%
- Ratio of survived cells (Drugs treated/Untreated), Average ([5]; CTOS#76, Aura 2 microM): 56.4%
- Ratio of survived cells (Drugs treated/Untreated), Average ([5]; CTOS#76, Aura 4 microM): 39.5%
- Ratio of survived cells (Drugs treated/Untreated), single passage points # ([5]; CTOS#76, Aura 4 microM): 36% and 56% and 30%

SMILES: COc1cc(/C=C/C(=O)N2CCC=CC2=O)cc(OC)c1OC [Pipe, Piperlongumine]
- IC50 [1]: 9.36 µM
- Ratio of survived cells (Drugs treated/Untreated), Average ([1]; OUMS-36, Pipe 2.5 microM): 107.667%
- Ratio of survived cells (Drugs treated/Untreated), Average ([1]; OUMS-36, Pipe 5 microM): 84.6667%
- Ratio of survived cells (Drugs treated/Untreated), Average ([1]; OUMS-36, Pipe 10 microM): 49.1667%
- Ratio of survived cells (Drugs treated/Untreated), Average ([2]; Pipe 2.5 microM): 75.3333%
- Ratio of survived cells (Drugs treated/Untreated), #3 ([2]; Pipe 2.5 microM): 56%
- Ratio of survived cells (Drugs treated/Untreated), #4 ([2]; Pipe 2.5 microM): 86%
- Ratio of survived cells (Drugs treated/Untreated), #5 ([2]; Pipe 2.5 microM): 84%
- Ratio of survived cells (Drugs treated/Untreated), Average ([2]; Pipe 5 microM): 44.8%
- Ratio of survived cells (Drugs treated/Untreated), #1 ([2]; Pipe 5 microM): 44%
- Ratio of survived cells (Drugs treated/Untreated), #3 ([2]; Pipe 5 microM): 33%
- Ratio of survived cells (Drugs treated/Untreated), #4 ([2]; Pipe 5 microM): 57%
- Ratio of survived cells (Drugs treated/Untreated), #5 ([2]; Pipe 5 microM): 29%
- Ratio of survived cells (Drugs treated/Untreated), #6 ([2]; Pipe 5 microM): 61%
- Ratio of survived cells (Drugs treated/Untreated), Average ([2]; Pipe 10 microM): 12.2%
- Ratio of survived cells (Drugs treated/Untreated), #1 ([2]; Pipe 10 microM): 19%
- Ratio of survived cells (Drugs treated/Untreated), #3 ([2]; Pipe 10 microM): 4%
- Ratio of survived cells (Drugs treated/Untreated), #4 ([2]; Pipe 10 microM): 16%
- Ratio of survived cells (Drugs treated/Untreated), #5 ([2]; Pipe 10 microM): 5%
- Ratio of survived cells (Drugs treated/Untreated), #6 ([2]; Pipe 10 microM): 17%
- IC50 [2, 6]: 4.25 µM
- IC50 ([2]; cellular survival, 5 days): 4.25 µM
- IC50 [3]: 7.89 µM
- Ratio of survived cells (Drugs treated/Untreated), Average ([3]; Pipe 2.5 microM): 105.667%
- Ratio of survived cells (Drugs treated/Untreated), single passage points # ([3]; Pipe 2.5 microM): 83% and 86% and 148%
- Ratio of survived cells (Drugs treated/Untreated), Average ([3]; Pipe 5 microM): 86.3333%
- Ratio of survived cells (Drugs treated/Untreated), single passage points # ([3]; Pipe 5 microM): 54% and 100% and 105%
- Ratio of survived cells (Drugs treated/Untreated), Average ([3]; Pipe 10 microM): 27.6667%
- IC50 [4]: 7.48 µM
- Ratio of survived cells (Drugs treated/Untreated), Average ([4]; TIG-119, Pipe 2.5 microM): 95.75%
- Ratio of survived cells (Drugs treated/Untreated), single passage points # ([4]; TIG-119, Pipe 2.5 microM): 83% and 121% and 96%
- Ratio of survived cells (Drugs treated/Untreated), Average ([4]; TIG-119, Pipe 5 microM): 80.75%
- Ratio of survived cells (Drugs treated/Untreated), Average ([4]; TIG-119, Pipe 10 microM): 27%
- IC50 [5]: 7.15 µM
- Ratio of survived cells (Drugs treated/Untreated), Average ([5]; CTOS#76, Pipe 2.5 microM): 81.75%
- Ratio of survived cells (Drugs treated/Untreated), Average ([5]; CTOS#76, Pipe 5 microM): 73%
- Ratio of survived cells (Drugs treated/Untreated), Average ([5]; CTOS#76, Pipe 10 microM): 32.3333%
